What was measured:
CK2 = molecular target: T1, CK2 (Homo sapiens, UniProt P68400); assay: CK2 kinase assay with CK2β-independent peptide substrate […]; assay type: biochemical
T1 construct: made in house; host or cells: Escherichia coli (CK2α)
Method: The following peptide substrates were employed: a canonical CK2 peptide substrate […] phosphorylated equally by CK2α and CK2α2β2 (CK2β-independent peptide substrate), and […] exclusively phosphorylated by CK2α2β2 (CK2β-dependent peptide substrate)[4]. GST-Olig2-(1-177), was used as a CK2β-dependent protein substrate.
CK2 kinase assays were performed in a final assay volume of 18 μL containing 3 μL of compounds, 3 μL of CK2α (36 ng) and a mixture of 1 mM peptide substrate, 10 mM MgCl2, and 1 μCi [γ^32P]-ATP. Final concentration of ATP was 100 μM. Assays were performed under linear kinetic conditions for 5 min at room temperature before termination by the addition of 60 μL of 4% TCA. ^32P incorporation in peptide substrate was determined as previously described.
Fig. S6. […] (a) Dose-dependent inhibition of CK2. CK2α (40 nM) was incubated with increasing concentrations of compound 1 (●), 4 (π) or 6 (○) in the presence of 20 nM CK2β. CK2 activity was determined with a saturating concentration of CK2β-dependent peptide substrate. (b) Differential effects of 6 on the phosphorylation of CK2 peptide substrates. CK2α (40 nM) was incubated with increasing concentrations of 6 in the presence of 20 nM CK2β. CK2 activity was determined with a saturating concentration of CK2β-independent peptide substrate (?) or CK2β-dependent peptide substrate (○). […]

MCF10A cells = assay: Scratch wound cell migration assay; assay type: cell-based, human; conditions: 40 μM
Method: Cells seeded at equal density were allowed to grow to confluence overnight. The Essen Bioscience WoundMaker^TM, an accessory for the IncuCyte Zoom®, was utilized to create Scratch-wounds of a standardized width (~600 μm). Cells were treated with the indicated inhibitors and imaged every 15 min for 44 h and the percentage of wound confluence was analyzed.
Fig. S10. […] MCF10A cells (a) or MDA-MB231 cells (b) were allowed to grow to confluence overnight. Wounds of a standardized width were created using the Essen Bioscience WoundMakerTM. […] Wound closure was monitored using the Essen IncuCyte Zoom live-cell microscopy incubator. Images were captured every 2 h for the duration of the experiment. Error bars represent the SEM of two biological replicates derived from technical triplicates.

MDA-MB231 cells = assay: Apoptosis by annexin V/propidium iodide staining; assay type: cell-based; conditions: MDA-MB231, 40 μM, AV/PI staining
Method: Cells plated at equal density (2 × 10^4 cells/well) were treated with the indicated inhibitors in cell culture medium containing 0.5 μg/ml Propidium iodide (Sigma-Aldrich). Images of PI-stained red fluorescent cells were captured every 3 h for the duration of the experiment. For apoptosis detection, 50 μL/mL fluorochrome-conjugated Annexin V (Molecular Probes) was added to the medium together with Propidium iodide and apoptotic cell numbers were calculated.
Fig. S12. […] Cell viability was assessed by Annexin V staining (a) or PI staining (b) using the Essen IncuCyte Zoom live-cell microscopy incubator. Images were captured every hour for the duration of the experiment. Error bars represent the SEM of two biological replicates derived from technical triplicates.

[1] = molecular target: T2, CK2 holoenzyme complexes in MCF10A cells (Homo sapiens, UniProt P68400); assay: In situ proximity ligation assay (PLA); assay type: cell-based; conditions: 50 μM, 3 h, DMSO control 16 ± 4
T2 construct: endogenous in cells; host or cells: MCF10A
Method: In situ PLAs were performed using a Duolink kit (Olink Bioscience, Uppsala, Sweden) according to the manufacturer’s instructions with few modifications. MCF10A cells were fixed in 4% paraformaldehyde for 10 min. The cells were then permeabilized with 0.1% Triton in Tris-buffered saline (TBS; 50 mM Tris, pH 7.6, 150 mM NaCl) and incubated with 100 mM glycine in phosphate-buffered saline (137 mM NaCl, 2.7 mM KCl, 10 mM Na2 HPO4, and 1.8 mM KH2 PO4, pH 7.4) for 20 min. Permeabilized cells were incubated overnight at 4 °C with primary antibodies diluted as follows: mouse CK2α 1:250 and rabbit CK2β 1:50. Cells were washed three times in TBS with 0.05% Tween-20 for 5 min each with gentle agitation. Secondary antibodies conjugated with oligonucleotides, PLA probe anti-mouse MINUS and PLA probe anti-rabbit PLUS, were added to the cells and incubated for 90 min at 37 °C in a humidity chamber. Finally, after ligation and amplification steps, cells were counterstained with the DNA-binding dye Hoechst and Phaloïdine-488 for actin staining (Molecular Probes, Thermo Fisher Scientific, Courtaboeuf, France). Images were observed using a Zeiss Apotome microscope and analyzed using a Zen Pro imaging software (Zeiss, Oberkochen, Germany). Quantification was performed using the BlobFinder software (V3.2, Swedish University of Agricultural Sciences, Uppsala University)[67]. […]

T2 sequence (P68400 whole entry, one chain of several): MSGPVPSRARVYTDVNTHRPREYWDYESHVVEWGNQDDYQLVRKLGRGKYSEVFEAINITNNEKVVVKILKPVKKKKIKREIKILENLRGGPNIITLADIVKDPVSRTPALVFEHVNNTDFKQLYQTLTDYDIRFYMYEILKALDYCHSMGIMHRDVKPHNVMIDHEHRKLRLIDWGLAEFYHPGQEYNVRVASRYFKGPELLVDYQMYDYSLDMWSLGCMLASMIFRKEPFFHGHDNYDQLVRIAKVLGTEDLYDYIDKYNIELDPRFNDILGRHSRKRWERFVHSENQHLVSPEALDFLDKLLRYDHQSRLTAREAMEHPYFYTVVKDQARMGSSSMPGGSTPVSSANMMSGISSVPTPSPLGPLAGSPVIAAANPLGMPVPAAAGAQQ
T1 sequence (P68400 whole entry): as the sequence (P68400 whole entry, one chain of several) above

Row | SMILES | cell migration / wound closure (MCF10A cells) | CK2 holoenzyme complexes (PLA dots) [1] | also measured
1 | COc1[nH]c2ccc(F)cc2c1C(=O)OCC1CCN(CCNS(C)(=O)=O)CC1 [Compound 1] | – | – | inhibition at 50 µM (CK2; at 50 μM, read-out: inhibition of phosphorylation of canonical CK2β-independent peptide substrate): 15%
2 | CS(=O)(=O)NCCN1CCC(COC(=O)c2c[nH]c3ccccc23)CC1 [Compound 3, (1-(2-(Methylsulfonamido)ethyl)piperidin-4-yl)methyl 1H-indole-3-carboxylate] | not affected | – | induction of apoptosis (MDA-MB231 cells): unable to induce apoptosis
3 | O=C(OCC1CCN(CCNS(=O)(=O)c2ccccc2)CC1)c1c[nH]c2ccccc12 [Compound 4, (1-(2-(Phenylsulfonamido)ethyl)piperidin-4-yl)methyl 1H-indole-3-carboxylate] | – | 8 ± 2 dots/cell | –
4 | COc1[nH]c2ccc(F)cc2c1C(=O)OCC1CCN(CCNS(=O)(=O)c2ccccc2)CC1.Cl [Compound 6] | completely abrogated | 6 ± 2 dots/cell | phosphorylation of the CK2β-independent peptide substrate (CK2; increasing concentrations, 40 nM CK2α, 20 nM CK2β): only weakly affected; exposure time after which apoptosis was detected (MDA-MB231 cells): 8 h

From paper PMC6828666, “Discovery of holoenzyme-disrupting chemicals as substrate-selective CK2 inhibitors” (Scientific Reports, 2019)
